From patent publication US20020166132A1, “System for regulating in vivo the expression of a transgene by conditional inhibition” (priority 2000, published 2002)

Tests used:
SeAP reporter gene = assay: Circulating SeAP after intramuscular injection and electrotransfer of plasmids into tibialis cranialis muscle of SCID mice; assay type: in vivo
Description: The 6-week-old SCID mice were first anesthetized with a Ketamine/Xylazine mixture (250 μl/mouse). The various plasmids in solution in 150 mM NaCl were then injected intramuscularly into the tibialis cranialis muscle of the mice. […] The amount of circulating SeAP was regularly monitored by taking blood samples and assaying the phosphatase activity using the Phospha-Light kit (Tropix).

[1] = tested on: SeAP reporter gene (plasmid pRDA02); assay: SeAP expression in C2C12 cells, hPPARγ2 inducible system; assay type: cell-based, murine; conditions: ratios of columns 3 and 4; 5 and 6; 7 and 8, FIG. 24; BRL49653 at 10^-7 M final
Description: FIG. 24: Measurement of the expression of SeAP 5 days after transfection in C2C12 cells with the following plasmids, with and without the chemical inducer BRL49653 at 10^-7 M final:
The cells used were NIHT3T3 murine fibroblasts (ATCC: CRL-1658). These cells were seeded 24 h before transfection, in 6- or 24-well plates, at a density of 5×10^4 cells/well in 1 ml of medium, or of 2.5×10^5 cells/well in 2 ml. The culture medium used was DMEM™ medium (Life Technologies Inc.) supplemented with 10% of calf serum. The cell cultures were incubated in an incubator at 37° C. in a humid atmosphere and under a partial CO2 pressure of 5%. The transfections were carried out approximately 24 h after seeding, when 50 to 80% confluence was obtained. C2C12 cells were murine myoblast cells (ATCC: CRL1772) and were cultured on a DMEM™ medium (Life Technologies Inc.) supplemented with 10% of fetal calf serum to which L-glutamine, 2 mM final, and antibiotics, 50 units final of penicillin and 50 μg/ml of streptomycin, were added.

**Q.** With `NC[C@@H]1O[C@H](O[C@H]2[C@@H](O)[C@H](O[C@@H]3[C@@H](O)[C@H](N)C[C@H](N)[C@H]3O[C@H]3O[C@H](CN)[C@@H](O)[C@H](O)[C@H]3N)O[C@@H]2CO)[C@H](N)[C@@H](O)[C@@H]1O` [neomycin B] as the molecule, how does the “expression of SeAP with aptamer ligand” value (SeAP reporter gene; pXL3010+pSeAPaptamerAS, IP injection approximately 500 μg/mouse, Example 13) read?
**A.** can be restored

**Q.** With `CN(CCOc1ccc(CC2SC(=O)NC2=O)cc1)c1ccccn1` (stereo not drawn) [BRL fibrate, rosiglitazone] as the molecule, how does the “inducibility of the expression of SeAP in the presence of the antisense transcript” value [1] read?
**A.** a certain inducibility

**Q.** Which “SeAP activity with aptamer ligand” value (SeAP reporter gene; pXL3010+pSeAPaptazyme, 400 mg/l via the drinking water, Example 14) does the source give for `CN1CCN(c2ccc3[nH]c(-c4ccc5[nH]c(-c6ccc(O)cc6)nc5c4)nc3c2)CC1` here?
**A.** restored to a significant level
